The subject of experiment [1] is HEC1-A endometrial cell line and JEG-3 trophectoderm cell line. In words: In vitro endometrial embryonic adhesion study (JEG-3 spheroids on HEC-1A monolayer). The settings on record: for Absolute adhesion rate / Absolute adhesion rate, Mean: HEC-1A treated 24 hours (sodium tungstate 10 μM); for Absolute adhesion rate: adhesion after 60 minutes; for Embryonic adhesion versus untreated HEC-1A cells (in words): HEC-1A treated 24 hours; for Absolute adhesion rate, Mean: Mean of Exp 1-3, baseline 30%. It is filed as cell-based, human. The text has this:
An “in vitro” human-human embryonic adhesion model made up the HEC1-A endometrial cell line and the JEG-3 trophectoderm cell line was used to determine the effect of sodium tungstate on endometrial receptivity.
The use of in vitro models, and specifically the model based on the mentioned cell lines (HEC-1A and JEG-3), is considered a standard model for studying endometrial receptivity and particularly the adhesion the trophoblast to the endometrium (Fertility and Sterility 2011; 96, 522-529; Methods in Enzymology 2006; 420:3-18 or FASEB J. 201; 26:3715-3727).
The JEG-3 cell line which simulates the trophectoderm cells of a human embryo are cells that grow in monolayers in laboratory using low adherence plates and are capable of forming spheroids simulating the human embryo; this is one of the most widely used cell lines for conducting in vitro embryonic adhesion assay.
The cell lines were commercially purchased (American Type Culture Collection (ATCC); Rockville, Md., USA) for conducting the endometrial embryonic adhesion experiments. They were thawed and expanded in 4 passes for obtaining sufficient cells to perform all the assays.
The HEC1-A cells were plated in 24-well plates and cultured with McCoy 5A culture medium supplemented with 10% fetal bovine serum and 0.1% antibiotics (fungizone and penicillin), until reaching 90% confluence. After reaching the confluence, there was added to the culture medium sodium tungstate at a final concentration of 10 μM, as well as Withaferin A (as a control, a compound that prevents embryonic adhesion) or culture medium (baseline adhesion data), without any additional component, for 24 hours.
The JEG-3 cells were plated in low adherent plates with Eagle's minimal essential medium (EMEM) culture medium supplemented with 10% fetal bovine serum and 0.1% antibiotics (fungizone and penicillin). Twenty-four hours before the adhesion assay, the JEG-3 trophoblast spheroids were formed from this culture. To that end, JEG-3 cells in the medium described above were suspended in an Erlenmeyer flask under stirring at a concentration of 6×10^5 cells/6 ml. The resulting spheroids were collected for the adhesion assay.
For the adhesion assay, 24 hours after culturing the HEC-1A cells with culture medium adding sodium tungstate, Withaferin A or without adding any treatment, the culture medium was changed with fresh culture medium without treatments under study. The trophectoderm spheroids were added onto the monolayer of HEC-1A cells, placing 6 to 10 spheroids per well. The adhesion of the spheroids was measured after 60 minutes, counting spheroid that was floating in the culture medium as non-adhered spheroid and spheroid that was not floating as adhered spheroid. The examination was conducted with an inverted microscope (Nikon Diaphot 300; Nikon Corp., Tokyo, Japan). The assay was conducted in triplicate.

For experiment [2], the system named is IRS2−/− female mice. In words: Ovulation study: phase of the estrous cycle in vaginal smears (Papanicolau). Format: in vivo. The arrangement: key to Phase of the estrous cycle in vaginal smear: A: Anestrus; D: Diestrus; P: Proestrus; E: Estrus; M: Metestrus. The conditions noted are these: for Phase of the estrous cycle in vaginal smear: individual IRS2−/− female mice, dihydrate. The text has this:
The mouse model used for determining the activity of tungsten (VI) salts for favoring normal reproduction and fertility is an Irs2 gene knock-out mouse, IRS2^−/−[Burks et. al., “IRS-2 pathways integrate female reproduction and energy homeostasis”, Nature, 2000, vol. 407, pp. 377-382]. Irs2 gene deletion translates into a clear sexual dimorphism in relation to fertility and carbohydrate metabolism.
The male mice of this model have insulin resistance and severe hyperglycemia that started at an early age. In contrast, the female mice remain relatively euglycemic at an early age and develop slight insulin resistance which remains until a later age (4-5 months). IRS2^−/− female mice at an early age, about 10 weeks old, show a low follicular development and persistent anovulation, accompanied by the absence of estrous cycle in most mice. The pregnancy rate in IRS2^−/− female mice is 9% compared to the rate of 100% in IRS^wt (IRS-2^−/− wild type) female mice. Given that female mice at these ages remain euglycemic and that they only develop slight insulin resistance, the profound impairment in fertility is not a direct result of anomalies in glucose metabolism.
(§1) Ten IRS2^−/− female mice of ages comprised between 6 and 8 weeks. Six “wild-type” (IRS2^wt) male mice of ages comprised between 6 and 8 weeks. The female and male mice were housed separately in normal conditions, i.e., a 12 h light/darkness cycle and controlled temperature and humidity. The animals were fed at will (also referred to as ad libitum) with a standard feed diet.
(§2) After an acclimatization period, the IRS2^−/− female mice were housed in groups of 4-6 mice/cage. Tungstate salt-free drinking water was administered to the animals during the pre-treatment phase (2 weeks).
(§3) Sodium tungstate was administered in the drinking water (ad libitum) by means of a solution of 2 mg/ml of sodium tungstate dihydrate (marketed by Carlo Erba) in distilled water after the pre-treatment phase (day 0 of treatment) and up to 4 weeks before sacrificing the animals. The daily dose of sodium tungstate ingested by the mice was about 180 mg/kg of body weight.
During the pre-treatment period and during the first 3 weeks of treatment, vaginal smears were performed in 6 randomly chosen female mice on days −8; −5; −2; −1; 7; 8; 14; 15 and 22, to determine the phase of the estrous cycle they were in.
Between […] of saline solution was introduced into the vagina of the mice with a Pasteur pipette. Vaginal exudate was collected with the same pipette and spread on a slide. Once air-dried, it was fixed and stained with the Papanicolau technique.
The Papanicolau technique comprises staining the vaginal smears fixed on the slide in the following manner: • 10 immersions in 50% v/v alcohol; • Immersing in Harris hematoxylin solution for 3 minutes; • Rinsing with running water; • 10 immersions in acid alcohol (1% hydrochloric acid); • Rinsing with running water; • 10 immersions in 95% v/v alcohol; • Immersing in OG-6 solution for 30 seconds; • 10 immersions in 96% v/v alcohol; • Immersing in eosin solution for 1 minute; • 10 immersions in 96% v/v alcohol; • 10 immersions in 86% v/v alcohol; and • 10 immersions in xylol
The preparations were analyzed by trained staff using a coding in a single-blind manner for eliminating observer bias.
The samples were identified in the following phases: diestrus, proestrus, estrus, metestrus, anestrus or non-evaluable. The cyclical nature of the four phases in periods of 4 to 6 days are indicative of a normal estrous cycle, whereas the absence of this cyclical nature and the persistence in anestrus, diestrus or proestrus phases are indicative of the absence of estrous cycle.

The subject of experiment [3] is IRS2−/− female mice. As to the kind of experiment: Implantation and pregnancy study after cross-breeding with IRS2wt male mice. It is filed as in vivo. How it is done:
as §1, §2, §3
After the first three weeks of treatment, the IRS2^−/− female mice were housed in cages in pairs together with a IRS2^wt male mouse continuously.
The mice were observed daily to look for signs of pregnancy or birth.
After 4 weeks, the male mice were exchanged between the cages and they were kept therein for another 4 weeks.
The administration of tungstate was maintained for 8 weeks in which male and female mice were housed together. After these 8 weeks, treatment was withdrawn and the male and female mice were housed together for 4 additional weeks.
After this period, the female mice were sacrificed and biopsy was carried out to look for indications of pregnancy.
After the cross-breeding period of the method of section B, the female mice were sacrificed and biopsies were carried out to look for indications of pregnancy.

The test system of experiment [4] is rats with diabetes and insulinopenia induced by streptozotocin. The settings on record: streptozotocin-diabetic females after prolonged treatment (10 weeks), mated with healthy males; non-diabetic 100%; cited from earlier work.
[5] abbreviates: individual treated IRS2−/− female mice, dihydrate.

Several values for one entry are separate records, joined by “and”; a condition that tells them apart may be missing. Identical values can stand only once.

On to `CC1=C(CO)C(=O)O[C@@H]([C@@H](C)[C@H]2CC[C@H]3[C@@H]4C[C@H]5O[C@]56[C@@H](O)C=CC(=O)[C@]6(C)[C@H]4CC[C@]23C)C1` [Withaferin A, reference compound], for which the Absolute adhesion rate in experiment [1] (Exp 1, baseline 12%) is on record as 0%; in experiment [1] (Exp 2, baseline 48%), 0%; in experiment [1] (Exp 3, baseline 31%) it was 0%. Besides, the “Embryonic adhesion versus untreated HEC-1A cells (in words)” value in experiment [1] is recorded as “No adhesion whatsoever”. Moreover, in experiment [1], the “Absolute adhesion rate, Mean” value is reported as 0%.
For `O.O.[Na+].[Na+].[O]=[W](=[O])([O-])[O-]` [sodium tungstate, sodium tungstate dihydrate], the “Phase of the estrous cycle in vaginal smear” value in experiment [2] (day 7 of treatment, 2 mg/ml sodium tungstate dihydrate in drinking water (about 180 mg/kg/day)) was “M and E (4×) and E-M”; in experiment [2] (day 8 of treatment, 2 mg/ml in drinking water) it was “M and E-M (3×) and E (2×)”; in experiment [2] (day 14 of treatment, 2 mg/ml in drinking water) it was “E and E-M (3×) and D”; in experiment [2] (day 15 of treatment, 2 mg/ml in drinking water), “D and E (2×) and M (2×) and A”; in experiment [2] (day 22 of treatment, 2 mg/ml in drinking water), “D (2×) and A (2×) and M and P”. For the same compound, the “Analyzed mice with recovery of the estrous cycle” value in experiment [2] (on the seventh day of treatment, infertile, non-diabetic IRS2−/− female mice) is 100%. In addition, the Pregnancy rate in experiment [3] (IRS2−/− female mice treated with tungstate (untreated 9%)) is given as 80%. For the same compound, the Pregnancy entry in experiment [3] (individual treated IRS2−/− female mice, 2 mg/ml in drinking water, cross-bred with IRS2wt males, dihydrate) is recorded as “YES”. Besides, the “Number of embryos implanted or young born (embryos implanted)” value in experiment [3] (setting [5]) is 7 embryos (3×) and 6 embryos. In experiment [3] (setting [5]), the “Number of embryos implanted or young born (young born)” value was 3 young and 8 young (2×) and 1 young. The “Mean of young/implanted embryos per pregnant female mouse” value in experiment [3] (treated IRS2−/− female mice) was “about 5”. For the same compound, the Absolute adhesion rate in experiment [1] (Exp 1, baseline 12%) is recorded as 31%; in experiment [1] (Exp 2, baseline 48%), 65%; in experiment [1] (Exp 3, baseline 31%) it was 35%. In addition, the “Embryonic adhesion versus untreated HEC-1A cells (in words)” value in experiment [1] is reported as “higher percentage of embryonic adhesion”. In addition, the “Absolute adhesion rate, Mean” value in experiment [1] worked out at 44%. In addition, in experiment [4], the “Percentage of births with respect to the number of positive curettages” value is 66%.

Source of the values: patent publication US10376540B2, “Tungsten (VI) salts used to treat infertility, for stimulating fertility and normal reproduction in a non-diabetic female mammal, and for improving the effectiveness of assisted reproduction techniques” (OXOLIFE, S.L., priority 2014, dated 2019).
